Results published in patent US5741671A, “Isolation cloning and expression of transmembrane water channel aquaporin 1(AQP1)” (The Johns Hopkins University, priority 1995, dated 1998).

How the values were obtained:
[1] = test system: control-injected oocytes; test: Xenopus oocyte osmotic swelling assay, control-injected oocytes; type: cell-based, Xenopus laevis; conditions: no RNA injected, 0.3 mM HgCl2, 22° C.
Experimental: (§1) Expression of AQP1 in Xenopus oocytes. Oocytes were removed from female Xenopus laevis frogs and prepared as described by Dascal (CRC Crit. Rev. Biochem., 1987, 22:317-373). Oocytes were injected with 0.05 microliters of water (control) or the same volume of water containing 1-10 nanograms of AQP1 RNA. The oocytes were incubated for up to 96 hours at 18° C. in modified Barth's buffer (88 mM NaCl, 1 mM KCl, 0.8 mM MgSO4, 0.3 mM Ca(NO3)2, 0.4 mM CaCl2, 2.4 mm NaHCO3, 10 mM HEPES, pH=7.4, total osmolality=200 mOsm/kg) also containing antibiotics. The whole oocytes were then removed and total cellular protein was dissolved in 40 microliters of buffer containing 1% (w/v) SDS and analyzed by immunoblot (Towbin et al., 1979, Proc. Natl. Acad. Sci. USA 76:4350-4354).
A swelling assay was adapted from that of published work (Fischbarg et al., 1990, Proc. Natl. Acad. Sci. USA 87:3244-3247; Zhang et al., 1990, J. Biol. Chem. 265: 15375-15378). […] Swelling was monitored with a Nikon phase-contrast microscope equipped for videorecording. The longest (D1) and shortest (D2) diameters of the oocytes were measured at 15- to 30-second intervals. Oocyte volumes (V) at each time point were calculated relative to volume at the initial observation (Vo): […]

[2] = target: T1, AQP1 (Homo sapiens, UniProt P29972); test: Xenopus oocyte swelling assay, AQP1 cRNA-injected oocytes (Example 11); type: cell-based; design: expressed in transfected cells; host or cells: Xenopus oocytes injected with AQP1 cRNA
T1 sequence (P29972 1-269): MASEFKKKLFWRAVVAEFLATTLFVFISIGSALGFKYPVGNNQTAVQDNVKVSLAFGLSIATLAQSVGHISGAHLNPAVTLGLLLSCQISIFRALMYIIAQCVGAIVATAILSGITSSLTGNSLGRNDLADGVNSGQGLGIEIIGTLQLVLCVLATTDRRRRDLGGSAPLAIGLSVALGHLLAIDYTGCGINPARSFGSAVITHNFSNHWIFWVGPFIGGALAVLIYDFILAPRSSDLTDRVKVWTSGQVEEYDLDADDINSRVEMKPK

[3] = target: T1, AQP1; test: Xenopus oocyte osmotic swelling assay, AQP1 RNA-injected oocytes (Example 4); type: cell-based; design: expressed in transfected cells; host or cells: Xenopus laevis oocytes injected with in vitro transcribed AQP1 RNA; conditions: for Pf (osmotic water permeability): AQP1 RNA-injected (10 ng) oocytes, 22° C.
Experimental: as §1
A swelling assay was adapted from that of published work (Fischbarg et al., 1990, Proc. Natl. Acad. Sci. USA 87:3244-3247; Zhang et al., 1990, J. Biol. Chem. 265: 15375-15378). Control-injected oocytes and AQP1 RNA-injected oocytes were incubated at 22° C. in modified Barth's solution diluted with distilled H2 O to 30% of the original tonicity. The oocytes were then observed by videomicroscopy. Swelling was monitored with a Nikon phase-contrast microscope equipped for videorecording. The longest (D1) and shortest (D2) diameters of the oocytes were measured at 15- to 30-second intervals. Oocyte volumes (V) at each time point were calculated relative to volume at the initial observation (Vo):
The change in relative volume with time, d(V/Vo)/dt, up to 8 minutes (or time of oocyte rupture) was fitted by computer to a quadratic polynomial, and initial rates of swelling were calculated. Osmotic water permeability (Pf, in cm/s) was calculated from osmotic swelling data, initial oocyte surface area (S=0.045 cm^2), and the molar volume of water (Vw =18 cm^3 /mol) (Zhang et al., 1990, J. Biol. Chem. 15375):
Pf =Vo ×d(V/Vo)dt]/[S×Vw x(osmm
After 72 hours, control- or AQP1 RNA-injected (10 ng) oocytes were treated as indicated. Some oocytes were left in standard Barth's buffer prior to measurement of osmotic swelling at 22° C. Other oocytes were incubated 5 minutes in Barth's buffer containing 0.3 mM or 3 mM HgCl2 as described, then removed and incubated for 15 min in 5 mM β-mercaptoethanol prior to osmotic swelling in the presence of β-mercaptoethanol.
After 72 hours, control-injected oocytes and oocytes injected with 0.1 to 10 ng of AQP1 RNA were studied for osmotic swelling at 22° C. The amount of AQP1 protein was estimated by dilutional immunoblotting (Denker et al., 1988, J. Biol. Chem. 263:15634; Laemmli, 1970, Nature 227:680; Towbin et al., 1979, Proc. Natl. Acad. Sci., 76:4350; Davis and Bennett, 1982, 257:5816).

SMILES | Pf (osmotic water permeability) [1] [cm/s x 10^-4] | inhibition of the increase in Pf mediated by AQP1 ([2]; 1 mM HgCl2, 5 min) | inhibition of swelling of AQP1 RNA-injected oocytes ([3]; 0.3 mM HgCl2) | Pf (osmotic water permeability) ([3]; 0.3 mM HgCl2 5 minutes) [cm/s x 10^-4] | Pf (osmotic water permeability) ([3]; 3.0 mM HgCl2 5 minutes) [cm/s x 10^-4] | restoration of Pf of AQP1-expressing oocytes after HgCl2 ([2]; 5 mM β-mercaptoethanol 30 min after 1 mM HgCl2) | restoration of swelling after HgCl2 inhibition ([3]; 5 mM β-mercaptoethanol after 0.3 mM HgCl2)
[Cl][Hg][Cl] [HgCl2] | 20.3 | blocked | inhibited | 80.7 | 34.5 |  | 
OCCS [β-mercaptoethanol] |  |  |  |  |  | restored | restored
